The supplement of paper PMC10307832

How the values were obtained:
Test in all cases: relative viability (nuclei count vs DMSO), 5 days (fraction); higher = more cells survive
Bortezomib + Trametinib = compound: CC(C)C[C@H](NC(=O)[C@H](Cc1ccccc1)NC(=O)c1cnccn1)B(O)O [Bortezomib] + CC(=O)Nc1cccc(-n2c(=O)n(C3CC3)c(=O)c3c(Nc4ccc(I)cc4F)n(C)c(=O)c(C)c32)c1 [Trametinib] (partner 0.02 µM)
How it was run: (§1)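 Relative viability is defined as nuclei in treated wells over nuclei in vehicle wells. Duplicate plates were run and medians reported. Lung cancer cell lines in 1536-well plates were dosed by pin tool one day after seeding, with one drug or with a fixed anchor-drug dose plus five library-drug doses (not always all listed) in √10 steps, and nuclei were counted after 5 days.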

[1] = compound: CC1=CC(=NN1)NC2=CC(=NC(=N2)/C=C/C3=CC=CC=C3)N4CCN(CC4)C + CCNC(=O)c1noc(-c2cc(C(C)C)c(O)cc2O)c1-c1ccc(CN2CCOCC2)cc1 [Luminespib] (partner 0.01 µM)
How it was run: as §1

Obatoclax + Crizotinib = compound: COC1=CC(c2cc3ccccc3[nH]2)=N/C1=C\c1[nH]c(C)cc1C [Obatoclax] + C[C@@H](Oc1cc(-c2cnn(C3CCNCC3)c2)cnc1N)c1c(Cl)ccc(F)c1Cl [Crizotinib] (partner 1 µM)
How it was run: as §1

Obatoclax + Tozasertib = compound: COC1=CC(c2cc3ccccc3[nH]2)=N/C1=C\c1[nH]c(C)cc1C [Obatoclax] + Cc1cc(Nc2cc(N3CCN(C)CC3)nc(Sc3ccc(NC(=O)C4CC4)cc3)n2)n[nH]1 [Tozasertib] (partner 0.1 µM)
How it was run: as §1

Row | Cell Line | relative viability (Bortezomib + Trametinib; first compound 0.0002 µM) | relative viability (Bortezomib + Trametinib; first compound 0.000632 µM) | relative viability (Bortezomib + Trametinib; first compound 0.002 µM) | relative viability (Bortezomib + Trametinib; first compound 0.006325 µM) | relative viability (Bortezomib + Trametinib; first compound 0.02 µM) | relative viability ([1]; first compound 0.08 µM) | relative viability ([1]; first compound 0.253 µM) | relative viability ([1]; first compound 0.8 µM) | relative viability ([1]; first compound 2.53 µM) | relative viability ([1]; first compound 8 µM) | relative viability (Obatoclax + Crizotinib; first compound 0.01 µM) | relative viability (Obatoclax + Crizotinib; first compound 0.03162 µM) | relative viability (Obatoclax + Crizotinib; first compound 0.1 µM) | relative viability (Obatoclax + Crizotinib; first compound 0.3162 µM) | relative viability (Obatoclax + Crizotinib; first compound 1 µM) | relative viability (Obatoclax + Tozasertib; first compound 0.01 µM) | relative viability (Obatoclax + Tozasertib; first compound 0.03162 µM) | relative viability (Obatoclax + Tozasertib; first compound 0.1 µM) | relative viability (Obatoclax + Tozasertib; first compound 0.3162 µM) | relative viability (Obatoclax + Tozasertib; first compound 1 µM)
1 | NCI-H2126 | 0.548 | 0.599 | 0.54 | 0.496 | 0.202 | 0.934 | 1.01 | 0.882 | 0.812 | 0.224 | 1.06 | 0.987 | 0.952 | 1.02 | 0.965 | 0.908 | 0.827 | 0.87 | 0.832 | 0.819
2 | NCI-H2170 | 0.892 | 0.921 | 0.972 | 0.229 | 0.142 | 0.705 | 0.692 | 0.688 | 0.444 | 0.14 | 1.13 | 1.13 | 1.11 | 1.2 | 1.09 | 0.759 | 0.758 | 0.718 | 0.715 | 0.753
3 | NCI-H2228 | 0.469 | 0.505 | 0.32 | 0.123 | 0.0916 | 0.178 | 0.143 | 0.139 | 0.128 | 0.054 | 0.404 | 0.488 | 0.464 | 0.299 | 0.233 | 0.278 | 0.318 | 0.29 | 0.257 | 0.21
4 | NCI-H2347 | 0.263 | 0.283 | 0.193 | 0.243 | 0.232 | 0.524 | 0.371 | 0.501 | 0.389 | 0.22 | 0.738 | 0.671 | 0.556 | 0.742 | 0.382 | 0.504 | 0.684 |  | 0.549 | 0.423
5 | NCI-H2405 | 0.579 | 0.646 | 0.523 | 0.223 | 0.188 | 0.845 | 0.827 | 0.655 | 0.526 | 0.186 | 0.821 | 0.832 |  | 0.826 | 0.867 | 0.789 | 0.905 |  | 0.833 | 0.882
6 | NCI-H3122 | 0.215 | 0.276 | 0.222 | 0.232 | 0.124 | 0.0829 | 0.0907 | 0.096 | 0.0908 | 0.0887 | 0.274 | 0.28 | 0.288 | 0.272 | 0.274 | 0.389 | 0.361 | 0.382 | 0.373 | 0.391
7 | PC-3 [JPC-3] | 0.639 | 0.756 | 0.41 | 0.252 | 0.202 | 0.684 | 0.834 | 0.736 | 0.686 | 0.549 | 0.942 | 0.892 | 0.949 | 0.984 | 0.917 | 0.913 | 0.85 | 0.87 | 0.81 | 0.859
8 | PC-14 | 0.788 | 0.799 | 0.356 | 0.0475 | 0.0434 | 0.169 | 0.158 | 0.12 | 0.121 | 0.0829 | 0.838 | 0.863 | 0.811 | 0.9 | 0.54 | 0.553 | 0.562 | 0.473 | 0.535 | 0.348
9 | RERF-LC-KJ | 0.868 | 0.863 | 0.823 | 0.395 | 0.199 | 1.33 | 1.2 | 0.944 | 0.269 | 0.264 | 0.739 | 0.821 | 0.804 | 0.794 | 0.749 | 0.444 | 0.536 | 0.487 | 0.493 | 0.281
10 | SK-LU-1 | 0.505 | 0.436 | 0.43 | 0.202 | 0.173 | 0.204 | 0.192 | 0.136 | 0.148 | 0.0748 | 1.03 | 0.836 | 0.761 | 0.403 | 0.339 | 0.346 | 0.354 | 0.342 | 0.184 | 0.154
11 | SK-MES-1 | 0.506 | 0.546 | 0.533 | 0.215 | 0.158 | 0.61 | 0.888 | 0.391 | 0.144 | 0.131 | 0.97 | 0.953 | 0.978 | 0.959 | 0.81 | 0.859 | 0.999 | 0.787 | 0.344 | 0.285
12 | SW 1573 | 0.55 | 0.612 | 0.291 | 0.074 | 0.0469 | 0.421 | 0.259 | 0.179 | 0.105 | 0.0707 | 0.781 | 0.749 | 0.843 | 0.861 | 0.483 | 0.222 | 0.208 | 0.145 | 0.143 | 0.129
13 | UMC-11 | 0.731 | 0.845 | 0.574 | 0.296 | 0.132 | 0.903 | 0.996 | 0.715 | 0.182 | 0.125 | 0.671 | 0.615 | 0.53 | 0.682 | 0.346 | 0.202 | 0.197 | 0.234 | 0.249 | 0.22
